In publication PMC9001717, “Tyrosine 121 moves revealing a ligandable pocket that couples catalysis to ATP-binding in serine racemase” (Communications Biology, 2022):
Read-outs that look alike come from different tables or passages of the source.

Assays:
[1] = system: human SR; design: method as in ref 57,58 (a number printed in a supplementary file, which may have a reference list of its own: not looked up in the article's list); conditions: upon addition of ATP; cited from earlier work
[2] = target: T1, human SR (hSR) (Homo sapiens, UniProt Q9GZT4, C2D/C6D); test: Thermal denaturation assay; assay type: binding
T1 construct: (His)6 (C); made in house; host or cells: E. coli (BL21-CodonPlus (DE3)-RIL for the mutants; the wild type is only 'as described[33]')
T1 sequence (Q9GZT4 1-340 C2D/C6D): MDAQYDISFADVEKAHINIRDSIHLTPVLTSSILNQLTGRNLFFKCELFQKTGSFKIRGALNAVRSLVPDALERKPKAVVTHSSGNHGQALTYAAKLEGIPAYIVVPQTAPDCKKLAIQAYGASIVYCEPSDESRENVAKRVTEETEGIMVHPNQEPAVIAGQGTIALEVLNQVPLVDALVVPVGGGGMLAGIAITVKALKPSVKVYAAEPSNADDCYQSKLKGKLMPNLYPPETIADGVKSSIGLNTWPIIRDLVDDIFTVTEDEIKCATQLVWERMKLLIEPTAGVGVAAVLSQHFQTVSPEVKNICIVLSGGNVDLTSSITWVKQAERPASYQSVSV
Protocol: The melting temperature (Tm) of SR was determined in the presence and absence of malonate (disodium salt) and 1 mM ATP (disodium salt, Fisher) in a buffer containing 100 mM CHES pH 8.5, 1 mM MgCl2, and 10 µM PLP. The reaction mixture was prepared in 96-well plates containing final concentrations of 2 µM SR, 5X SYPRO Orange dye (from 5000X concentrate, ThermoFisher), and a 6-point 1:3 dilution series of malonate (0–1 mM). Each condition was assessed with and without 1 mM ATP in the buffer. Thermal denaturation analysis was performed in triplicate by transferring 10 µL reaction mixture to 384-well plates for use in a BioRad CFX384 Touch Real-Time PCR Detection System. Programme: 10 min hold at 25 °C, plate read, increase by increments of 0.5 °C up to 95 °C; each step accompanied by a 15 s hold and plate read. Data were analysed using GraphPad Prism.

[3] = system: hSR; design: method as in PMID 25331425; conditions: cited from earlier work
[4] = system: Yeast SR; design: method as in ref 4 (a number printed in a supplementary file, which may have a reference list of its own: not looked up in the article's list); conditions: ref 4; cited from earlier work
[5] = target: T1, human SR (hSR); design: method as in PMID 18812225; conditions: read-out: inhibition constant (Ki); cited from earlier work
[6] = system: SR; design: method as in supplementary refs 2, 11-32; conditions: literature summary; ref supplementary refs 2, 11-32; cited from earlier work
[7] = system: SR; conditions: cited from earlier work
[8] = system: mouse SR; design: method as in PMID 28533113; conditions: cited from earlier work
[9] = target: T2, human serine racemase (hSR) WT (Homo sapiens, UniProt Q9GZT4, C2D/C6D); test: L- to D-Ser racemisation coupled luminescence assay, wild-type hSR; assay type: biochemical; conditions: malonate used as control compound
T2 construct: (His)6 (C); made in house; host or cells: E. coli (BL21-CodonPlus (DE3)-RIL for the mutants; the wild type is only 'as described[33]')
T2 sequence (Q9GZT4 1-340 C2D/C6D): T1 sequence (Q9GZT4 1-340 C2D/C6D)
Protocol: The ability of compounds to inhibit the L to D-Ser racemisation activity of hSR was measured in a coupled assay. In the assay, hSR converts L-Ser to D-Ser. The D-Ser is then converted into pyruvate, ammonia and hydrogen peroxide using D-amino acid oxidase. Next, the hydrogen peroxide reacts with luminol in the presence of horseradish peroxidase, producing luminescent by-product. In the assay malonate was used as a control compound and gave 100% inhibition – results for XChem compounds are shown in Supplementary Table 4 and in supplementary Fig. 12. The activity of the wild-type and the three Y121 mutants, Y121F, Y121A and Y121G was measured at six ATP concentrations (1 mM, 0.5 mM, 0.25 mM, 0.125 mM, 0.062 mM and 0.031 mM) as shown in supplementary Fig. 11.
The inhibition of hSR activity was measured using a luminescence assay in a 384 well plate (flat bottom white, Corning). Initially, each well contained 100 mM Tris pH 8.5, 0.05% Pluronic f-127 (VWR), 1 mM MgCl2, 1 mM ATP (disodium salt, Fisher), 10 µM PLP, 0.3 nM hSR, 2 mM L-serine and compound at 16.67 mM to 0.0077 mM (see supplementary Fig. 12) and had 16.7% DMSO concentration. The plate was incubated at RT with shaking for 30 min. After this, the reaction was stopped using a detection mix. The final well concentration was 100 mM Tris pH 8.5, 0.05% Pluronic f-127 (VWR), 1 mM EDTA (Fisher), 0.25 U/mL horseradish peroxidase, 0.5 U/mL D-amino acid oxidase and 25 µM Luminol (Insight Biotechnology) and 8.4% DMSO. The plate was left to incubate covered and shaking for 10 min. The plate was then read using a PHERAstar (BMG) plate reader. For the ATP dependant activity data, the method was kept the same, except for varying the concentration of ATP.
The relative light units read (x) on the PHERAstar were converted into percentage inhibition (PI) using the equation: PI=100x[1−(x−Min)/(Max−Min)] where min is negative control (100% inhibition) and max is the positive control (no inhibition). The IC50s were calculated with GraphPad (Prism 8.3.1, Graphpad Software, San Diego CA).

[10] = 1 mM of the additive alone, reference Tm 47.3 °C

Row | Compound | increase of D-serine elimination [1] [fold] | increase of L-serine elimination [1] [fold] | increase of L-serine racemisation [1] [fold] | ΔTm [2, 10] | increase of hSR affinity for malonate ([3]; effect of ATP on malonate binding to the catalytic site) | increase of both reactions (racemisation and elimination) [4] | Ki [5] [µM] | Inhibition mode [6] | IC50 ([7]; ref 48) [µM] | IC50 ([7]; ref 49) [µM] | Ki ([7]; review of SR inhibitors) [µM] | ΔTm ([2]; 1 mM ATP and 1 mM malonate together) | malonate concentration required for the cooperative stabilising effect of ATP and malonate ([2]; with 1 mM ATP) [mM] | IC50 [8] [µM] | increase of the affinity of hSR for ATP ([3]; allosteric effect of malonate on the ATP site) [fold] | inhibition by control compound [9] [%]
1 | Nc1ncnc2c1ncn2[C@@H]1O[C@H](COP(=O)(O)OP(=O)(O)OP(=O)(O)O)[C@@H](O)[C@H]1O [ATP, Adenosine triphosphate] | 4 | 31 | ~2 | −1.3 °C | at least 9 fold | less than 2 fold | – | – | – | – | – | – | – | – | – | –
2 | O=C(O)CC(=O)O [malonate] | – | – | – | +1.2 °C | – | – | 33 | Competitive | 67 | 449 | < 100 | +3.7 °C | > 0.1 | 770 | 100 | 100
